Article PMC9607644, “Glycoconjugation of Quinoline Derivatives Using the C-6 Position in Sugars as a Strategy for Improving the Selectivity and Cytotoxicity of Functionalized Compounds” (Molecules, 2022)

What was measured:
MCF-7 cells = experiment: Clonogenic assay, MCF-7; format: cell-based, human; conditions: IC50 concentration 72 h, then 10 days in fresh medium
Experimental: (§1) MCF-7 and HCT-116 cells were treated with type A glycoconjugates and their ability to proliferate was observed. […] The formed colonies were stained with crystal violet (Figure 5).
(§2) To determine the number of colonies forming by cells after exposure to the test compounds, a clonogenic assay was performed as reported in the literature. The cells were seeded into 6-well plates at a density of 1 × 10^5 (HCT-116) or 2 × 10^5 (MCF-7, NHDF-Neo) per well (3 mL) and allowed to attach for 24 h under standard conditions with 5% CO2 at 37 °C. The following day, the medium was removed and cells were treated with solutions of test compounds in fresh medium at a dose equal to their IC50 values. Control cells were grown with fresh medium supplemented with 0.5% DMSO. After 72 h of incubation, the cells were collected by trypsinization and then reseeded into new 6-well plates at a density of 1000 cells/well/3 mL. The plates with cells were incubated for 10 days under standard conditions with 5% CO2 at 37 °C. After this time, the medium was removed and the cells were washed with PBS, fixed with ice-cold ethanol (-20 °C) for 3 min, and washed again with PBS. Finally, cells were stained with crystal violet (0.01% in H2O; Sigma-Aldrich, Taufkirchen, Germany) for 20 min. The plates were then washed with H2O and allowed to air-dry.

HCT-116 cells [1] = experiment: Clonogenic assay, HCT-116; format: cell-based, human; conditions: IC50 concentration 72 h, then 10 days in fresh medium
Experimental: as §1, §2

NHDF-Neo cells = experiment: Cell cycle analysis by flow cytometry, NHDF-Neo; format: cell-based, human; conditions: IC50 dose, 24 h
Source text: After determining the type of cell death caused by the test compounds, the flow cytometry technique was used to study their influence on potential changes in the course of the cell cycle of the HCT-116, MCF-7, and NHDF-Neo lines. The cell cycle is the sequence of growth and division of cells, both normal and cancerous. This process begins from the resting phase (G0) through the active growth phases (G1, S, G2), leading to mitosis (M) in which the cell’s nucleus divides. […] After this time, cells were harvested and treated with a buffer to lysate the cells and isolate the cell nuclei. Propidium iodide was used to assess the amount of DNA in particular phases of the cell cycle. Histograms of DNA content in cells are presented in the Supplementary Materials (Figure S74).
The cell cycle and the type of cell death induced by the test compounds were measured by using flow cytometry according to the manufacturer’s protocol. The cells were seeded into 6-well plates at a density of 3 × 10^5 (HCT-116) or 4 × 10^5 (MCF-7, NHDF-Neo) per well (3 mL) and allowed to attach for 24 h under standard conditions with 5% CO2 at 37 °C. The following day, the medium was removed and cells were treated with solutions of test compounds in fresh medium at a dose equal to their IC50 values. Control cells were grown with fresh medium supplemented with 0.5% DMSO. After 24 h of incubation, the cells were collected by trypsinization. Then, samples were centrifuged (3 min, 2000 rpm, RT) and washed with PBS, after which the cells were centrifuged again (3 min, 2000 rpm, RT) and the supernatant was carefully removed. The resulting precipitate contained cells, which were used for flow cytometry experiments.
For cell cycle analysis, the cells were suspended in 300 μL of hypotonic buffer (consisting of: sodium citrate dihydrate 1 g/L, propidium iodide (PI) 1 mg/mL, RNAse A 10 mg/mL (EURx, Gdańsk, Poland), Triton X-100 1:9), mixed gently and incubated in the dark at room temperature for 20–30 min. […]

HCT-116 cells [2] = experiment: Wound healing assay, HCT-116; format: cell-based, human; conditions: IC50 concentration, observed for 72 h
Experimental: This experiment consisted in making a “wound” in a confluent monolayer of HCT-116 and MCF-7 cells, which were next treated with the test compounds at their IC50 concentrations. […] In the control, cell migration from the edges of the wound is visible, gradually filling the gap. After 72 h, the wounds are almost completely covered with cells. In the same way, cell migration is observed in healthy NHDF cells.
To analyze the migration properties of cells exposed to test compounds, a wound-healing assay was performed as reported in the literature. The cells were seeded into 6-well plates at a density of 3 × 10^5 (HCT-116) or 4 × 10^5 (MCF-7, NHDF-Neo) per well (3 mL) and allowed to attach for 24 h under standard conditions with 5% CO2 at 37 °C. After forming a confluent monolayer, a linear scratch in each sample with a 200 µL pipette tip was made and the first photo at time zero was taken. The cells were washed with PBS and then treated with solutions of test compounds in a fresh medium at a dose equal to their IC50 values. Control cells were grown with fresh medium supplemented with 0.5% DMSO. The cells were incubated and monitored for 72 h under standard conditions with 5% CO2 at 37 °C. Cell monitoring and photos were taken using Live Cell Movie Analyzer, JuLI™ Br & FL (NanoEnTek Inc., Seoul, Korea).

ctDNA = experiment: Intercalation study, UV-Vis absorption titration with ctDNA; format: binding, calf; conditions: 50 µM glycoconjugate, ctDNA 3 to 300 µM, Tris-HCl pH 7.5, 2 h 37 °C
Experimental: Due to the steric and electron features, quinoline-based compounds are well-known DNA intercalating agents. Therefore, the antiproliferative action of quinoline-related compounds can be related among others to intercalating between two adjacent base pairs of duplex DNA and inhibiting nucleic acid synthesis. […] The binding of the A-2 and E-2 to ctDNA has been characterized through absorption titration, which is an effective technique for DNA intercalation studies. The experiments were carried out for a constant concentration of glycoconjugates with increasing concentrations of ctDNA.
For the DNA binding studies, all experiments were carried out in molecular biology grade Tris-HCl buffer at pH 7.5 (EURx, Poland). The purity of the calf thymus DNA (ctDNA) (Sigma-Aldrich, St. Louis, MO, USA) was determined by measuring the ratio of UV absorbance at 260 and 280 nm. Here, the ratio was in the range of 1.8–1.9, indicating the DNA was sufficiently free from protein. The concentration of ctDNA was determined from the absorbance at 260 nm and using a molar absorption coefficient ε = 6600 M^−1 cm^−1 [68]. […] The samples were incubated for 2 h at 37 °C with gently shaking and the absorption spectra were measured using a UV–Vis-NIR spectrophotometer JASCO V-570 (Tokyo, Japan) in the range of 200–400 nm.

CC(=O)OC1O[C@H](Cn2cc(COc3cccc4cccnc34)nn2)[C@@H](OC(C)=O)[C@H](OC(C)=O)[C@H]1OC(C)=O (stereo partly shown) [Compound A-1]
clonogenic potential, MCF-7 (MCF-7 cells): able to decrease the clonogenic potential
clonogenic potential, HCT-116 (HCT-116 cells [1]): able to decrease the clonogenic potential
cell cycle phase distribution in words, NHDF-Neo (NHDF-Neo cells): slightly decreased the number of cells in the G2/M phase with a simultaneous slight increase in the percentage of cells in the G0/G1 phase
cell migration, HCT-116 (HCT-116 cells [2]): significantly slower migration

OC1O[C@H](Cn2cc(COc3cccc4cccnc34)nn2)[C@@H](O)[C@H](O)[C@H]1O (stereo partly shown) [Compound A-2]
clonogenic potential, MCF-7 (MCF-7 cells): able to decrease the clonogenic potential
clonogenic potential, HCT-116 (HCT-116 cells [1]): able to decrease the clonogenic potential
binding to ctDNA, change of UV-Vis absorption spectrum (ctDNA): hypochromic and bathochromic effects
cell cycle phase distribution in words, NHDF-Neo (NHDF-Neo cells): slightly decreased the number of cells in the G2/M phase with a simultaneous slight increase in the percentage of cells in the G0/G1 phase
cell migration, HCT-116 (HCT-116 cells [2]): significantly slower migration

OC[C@H]1O[C@@H](n2cc(COc3cccc4cccnc34)nn2)[C@H](O)[C@@H](O)[C@@H]1O [Compound E-2, reference compound]
binding to ctDNA, change of UV-Vis absorption spectrum (ctDNA): hypochromic and bathochromic effects
